This passage reports TGI results from PubChem BioAssay (NCI).

Among the test systems are CAKI-1 renal; NCI-H226 lung; LOX IMVI melanoma; MALME-3M melanoma; RXF 393 renal; UO-31 renal; DU-145 prostate; HCT-116 colon; SW-620 colon; HCC-2998 colon.
What all share (assay): inhibition of tumour cell growth, NCI panel, 48 h

Structures are written as SMILES.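 Protocol summary: plate cells (96-well), add compound at 5 concentrations, incubate 48 h, interpolate endpoints linearly. The concentration for full growth arrest is given as TGI.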

As to `CS(=O)(=O)c1nc(-c2cc3c(c(S(C)(=O)=O)n2)CCCC3)cc2c1CCCC2`, the TGI was above 59.1 µM in the assay with CAKI-1 renal; above 100 µM in the assay with NCI-H226 lung; above 100 µM with LOX IMVI melanoma; above 100 µM with MALME-3M melanoma; above 74.9 µM with RXF 393 renal; 0.111 µM in the assay on UO-31 renal. Also, the TGI in the assay with DU-145 prostate, with HCT-116 colon, in the assay with SW-620 colon and in the assay with HCC-2998 colon was above 100 µM each time.
Take `[O-][N+](CCO)(CCO)c1ncnc2nc[nH]c12`: the TGI in the assay with CAKI-1 renal, in the assay with NCI-H226 lung, in the assay on LOX IMVI melanoma, with MALME-3M melanoma, in the assay with RXF 393 renal and with UO-31 renal was above 100 µM each time. Besides, the TGI in the assay on DU-145 prostate, in the assay on HCT-116 colon, with SW-620 colon and in the assay on HCC-2998 colon was above 100 µM throughout.
Consider `OCCOCn1cc(Cn2ncc3c(SCc4ccccc4)ncnc32)nn1`, for which the TGI with CAKI-1 renal, with NCI-H226 lung, in the assay on LOX IMVI melanoma, with MALME-3M melanoma, with RXF 393 renal and in the assay on UO-31 renal was above 100 µM in each case. The TGI with DU-145 prostate, in the assay with HCT-116 colon, in the assay with SW-620 colon and with HCC-2998 colon was above 100 µM each time.
